Assay results published in publication PMC11304049 (RSC Advances, 2024).
Where “and” joins values, the source holds several entries; their conditions need not be identical. Identical values can stand only once. Like-named read-outs stand apart in the source and are kept apart here.

How the values were obtained:
Pf3D7 [1] = assay: microbe, parasite or virus in culture; assay type: cell-based; settings: Plasmodium falciparum, 3D7, read-out: Pf3D7 IC50
PfW2 [2] = assay: microbe, parasite or virus in culture; assay type: cell-based, Plasmodium falciparum; settings: read-out: PfW2 IC50
[3] = Cytotoxicity by MTT assay, Vero cells; assay type: cell-based; settings: African green monkey, Vero cells
Vero cell = assay: Cytotoxicity by MTT assay, Vero cells; assay type: cell-based; settings: for Selectivity index (SI) with Pf3D7 strain, Vero cell: cytotoxicity IC50 / Pf3D7 IC50; for Selectivity index (SI) with PfW2 strain, Vero cell: cytotoxicity IC50 / PfW2 IC50
[4] = Cytotoxicity by MTT assay, lung cancer A5489 cell line; assay type: cell-based, human; settings: human, lung cancer A5489 cell line
[5] = test system: lung cancer A5489 cell line; assay: as above; assay type: cell-based, human; settings: for Selectivity index (SI) with Pf3D7 strain, A5489: cytotoxicity IC50 / Pf3D7 IC50; for Selectivity index (SI) with PfW2 strain, A5489: cytotoxicity IC50 / PfW2 IC50
[6] = test system: early ring stage 3D7 parasite of P. falciparum; assay: Impact on parasite growth and morphology; assay type: cell-based, Plasmodium falciparum; settings: ring-stage parasites, 3 × IC50 concentration, smears after 24 and 48 hours
Falcipain-2 = molecular target: T1, Falcipain-2 (Plasmodium falciparum, UniProt Q8I6U4); assay: biochemical; settings: Falcipain-2 (IC50 μM), mean of triplicate
T1 sequence (Q8I6U4 244-484): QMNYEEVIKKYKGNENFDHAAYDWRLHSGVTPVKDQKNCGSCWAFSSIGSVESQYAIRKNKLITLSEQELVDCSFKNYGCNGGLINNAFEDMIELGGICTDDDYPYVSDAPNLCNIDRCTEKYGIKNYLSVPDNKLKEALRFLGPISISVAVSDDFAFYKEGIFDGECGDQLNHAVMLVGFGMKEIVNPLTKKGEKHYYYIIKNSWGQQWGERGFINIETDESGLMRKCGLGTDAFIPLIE

Falcipain-3 = molecular target: T2, Falcipain-3 (Plasmodium falciparum, UniProt Q8IIL0); assay: biochemical
T2 sequence (Q8IIL0 243-492): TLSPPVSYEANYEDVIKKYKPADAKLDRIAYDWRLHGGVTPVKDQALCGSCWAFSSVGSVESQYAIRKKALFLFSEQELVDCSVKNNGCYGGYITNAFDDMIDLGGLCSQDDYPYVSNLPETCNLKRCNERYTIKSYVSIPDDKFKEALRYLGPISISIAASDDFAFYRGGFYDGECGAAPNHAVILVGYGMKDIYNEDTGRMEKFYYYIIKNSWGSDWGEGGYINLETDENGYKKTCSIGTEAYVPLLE

Pf3D7 [7] = settings: read-out: Pf3D7 IC50; reference drugs, reported earlier; cited from earlier work
PfW2 [8] = settings: read-out: PfW2 IC50; reference drugs, reported earlier; cited from earlier work

`O=C1CC2(CCN(c3cc(N4CCN(S(=O)(=O)c5ccc(F)c(F)c5)CC4)ncn3)CC2)Oc2ccccc21` [SZ11, 1′-(6-(4-((3,4-Difluorophenyl)sulfonyl)piperazin-1-yl)pyrimidin-4-yl)spiro [chromane-2,4′-piperidin]-4-one] gave an IC50 (Pf3D7 [1]) of 3.92 ± 0.25 µM, an IC50 (PfW2 [2]; Plasmodium falciparum) of 5.58 ± 0.19 µM and an IC50 at 72 h [3] of over 1000 µM. The “Selectivity index (SI) with Pf3D7 strain, Vero cell” value (Vero cell) was 255.10, the “Selectivity index (SI) with PfW2 strain, Vero cell” value (Vero cell) was 179.21 and the IC50 at 24 h [4] was 94.2 ± 2.97 µM. For the same compound, the “Selectivity index (SI) with Pf3D7 strain, A5489” value [5] was 24.01, the “Selectivity index (SI) with PfW2 strain, A5489” value [5] was 16.87 and the “Effect on erythrocytic growth of the parasite” value (“Effect on erythrocytic growth” below) [6] was “stopped at the early trophozoite stage”. The IC50 (Falcipain-2) was 6.5 ± 1.6 µM and the IC50 (Falcipain-3) was 8 ± 1.4 µM.

With `O=C1CC2(CCN(c3cc(N4CCN(S(=O)(=O)c5ccccc5F)CC4)ncn3)CC2)Oc2ccccc21` [SZ8, 1′-(6-(4-((2-Fluorophenyl)sulfonyl)piperazin-1-yl)pyrimidin-4-yl)spiro[chromane-2,4′-piperidin]-4-one] the IC50 (Pf3D7 [1]) was 5.61 ± 0.42 µM and the IC50 (PfW2 [2]; Plasmodium falciparum) was 8.12 ± 0.37 µM.

`O=C1CC2(CCN(c3cc(N4CCN(S(=O)(=O)c5cc(F)cc(F)c5)CC4)ncn3)CC2)Oc2ccccc21` [SZ10, 1′-(6-(4-((3,5-Difluorophenyl)sulfonyl)piperazin-1-yl)pyrimidin-4-yl) spiro [chromane-2,4′-piperidin]-4-one] gave an IC50 (Pf3D7 [1]) of 4.55 ± 0.34 µM, an IC50 (PfW2 [2]; Plasmodium falciparum) of 6.67 ± 0.16 µM and an IC50 at 72 h [3] of over 1000 µM. The “Selectivity index (SI) with Pf3D7 strain, Vero cell” value (Vero cell) was 219.79, the “Selectivity index (SI) with PfW2 strain, Vero cell” value (Vero cell) was 149.92 and the IC50 at 24 h [4] was 122 ± 3.39 µM. The “Selectivity index (SI) with Pf3D7 strain, A5489” value [5] was 26.91, the “Selectivity index (SI) with PfW2 strain, A5489” value [5] was 18.35 and the “Effect on erythrocytic growth” value [6] was “stopped at the early trophozoite stage”. It also gave an IC50 (Falcipain-2) of 7.2 ± 1.8 µM and an IC50 (Falcipain-3) of 8.8 ± 1.5 µM.

For `O=C1CC2(CCN(c3cc(N4CCN(S(=O)(=O)N5CCOCC5)CC4)ncn3)CC2)Oc2ccccc21` [SZ13, 1′-(6-(4-(Morpholinosulfonyl)piperazin-1-yl)pyrimidin-4-yl) spiro[chromane-2,4′-piperidin]-4-one], the IC50 (Pf3D7 [1]) was 22.2 ± 0.36 µM and the IC50 (PfW2 [2]; Plasmodium falciparum) was over 15 µM.

Work on `Cc1noc(C)c1S(=O)(=O)N1CCN(c2cc(N3CCC4(CC3)CC(=O)c3ccccc3O4)ncn2)CC1` [SZ12, 1′-(6-(4-((3,5-Dimethylisoxazol-4-yl)sulfonyl)piperazin-1-yl)pyrimidin-4-yl) spiro[chromane-2,4′-piperidin]-4-one] yielded an IC50 (Pf3D7 [1]) of 8.46 ± 0.28 µM and an IC50 (PfW2 [2]; Plasmodium falciparum) of over 15 µM.

For `O=C1CC2(CCN(c3cc(N4CCN(S(=O)(=O)c5ccc([N+](=O)[O-])cc5)CC4)ncn3)CC2)Oc2ccccc21` [SZ1, 1′-(6-(4-((4-Nitrophenyl)sulfonyl)piperazin-1-yl)pyrimidin-4-yl)spiro[chromane-2,4′-piperidin]-4-one], the IC50 (Pf3D7 [1]) was 14.8 ± 0.24 µM, the IC50 (PfW2 [2]; Plasmodium falciparum) was over 14 µM and the IC50 (PfW2 [2]) was over 15 µM.

For `CCc1nc(N)nc(N)c1-c1ccc(Cl)cc1` [PYR, pyrimethamine], the IC50 (Pf3D7 [7]) is listed as 0.015 ± 0.0002 µM and the IC50 (PfW2 [8]) is listed as 129 ± 11.3 µM.

For `CCN(CC)CCCC(C)Nc1ccnc2cc(Cl)ccc12` (stereo not drawn) [CQ, Chloroquine], the IC50 (Pf3D7 [7]) is given as 0.018 ± 0.002 µM and the IC50 (PfW2 [8]) is given as 0.051 ± 0.001 µM.

`N#Cc1ccc(S(=O)(=O)N2CCN(c3cc(N4CCC5(CC4)CC(=O)c4ccccc4O5)ncn3)CC2)cc1` [SZ4, 4-((4-(6-(4-Oxospiro[chromane-2,4′-piperidin]-1′-yl)pyrimidin-4-yl)piperazin-1-yl)sulfonyl)benzonitrile] gave an IC50 (Pf3D7 [1]) of 6.33 ± 0.29 µM and an IC50 (PfW2 [2]; Plasmodium falciparum) of 14.4 ± 0.16 µM.

With `O=C1CC2(CCN(c3cc(N4CCN(S(=O)(=O)c5ccc(F)cc5)CC4)ncn3)CC2)Oc2ccccc21` [SZ9, 1′-(6-(4-((4-Fluorophenyl)sulfonyl)piperazin-1-yl)pyrimidin-4-yl)spiro[chromane-2,4′-piperidin]-4-one] the IC50 (Pf3D7 [1]) was 3.22 ± 0.07 µM, the IC50 (PfW2 [2]; Plasmodium falciparum) was 3.89 ± 0.23 µM and the IC50 at 72 h [3] was over 1000 µM. The “Selectivity index (SI) with Pf3D7 strain, Vero cell” value (Vero cell) was 310.55, the “Selectivity index (SI) with PfW2 strain, Vero cell” value (Vero cell) was 257.06 and the IC50 at 24 h [4] was 78.5 ± 2.76 µM. For the same compound, the “Selectivity index (SI) with Pf3D7 strain, A5489” value [5] was 24.36, the “Selectivity index (SI) with PfW2 strain, A5489” value [5] was 20.17 and the “Effect on erythrocytic growth” value [6] was “stopped at the early trophozoite stage”. The IC50 (Falcipain-2) was 5.4 µM and 4.9 µM and the IC50 (Falcipain-3) was 6.3 ± 1.2 µM.

For `O=C1CC2(CCN(c3cc(N4CCN(S(=O)(=O)c5cccnc5)CC4)ncn3)CC2)Oc2ccccc21` [SZ7, 1′-(6-(4-(Pyridin-3-ylsulfonyl)piperazin-1-yl)pyrimidin-4-yl)spiro[chromane-2,4′-piperidin]-4-one], the IC50 (Pf3D7 [1]) was 7.97 ± 0.33 µM and the IC50 (PfW2 [2]; Plasmodium falciparum) was 5.64 ± 0.18 µM.

For `O=C1CC2(CCN(c3cc(N4CCN(S(=O)(=O)c5ccc6ccccc6c5)CC4)ncn3)CC2)Oc2ccccc21` [SZ3, 1′-(6-(4-(Naphthalen-2-ylsulfonyl)piperazin-1-yl)pyrimidin-4-yl)spiro[chromane-2,4′-piperidin]-4-one], the IC50 (Pf3D7 [1]) was 25.2 ± 0.35 µM and the IC50 (PfW2 [2]; Plasmodium falciparum) was over 15 µM.

`O=C1CC2(CCN(c3cc(N4CCN(S(=O)(=O)c5cccc(C(F)(F)F)c5)CC4)ncn3)CC2)Oc2ccccc21` [SZ14, 1′-(6-(4-((3-(Trifluoromethyl)phenyl)sulfonyl)piperazin-1-yl)pyrimidin-4-yl)spiro [chromane-2,4′-piperidin]-4-one] gave an IC50 (Pf3D7 [1]) of 2.84 ± 0.21 µM, an IC50 (PfW2 [2]; Plasmodium falciparum) of 2.84 µM and an IC50 (PfW2 [2]) of 3.12 ± 0.14 µM. For the same compound, the IC50 at 72 h [3] was over 1000 µM, the “Selectivity index (SI) with Pf3D7 strain, Vero cell” value (Vero cell) was 352.11 and the “Selectivity index (SI) with PfW2 strain, Vero cell” value (Vero cell) was 320.51. The IC50 at 24 h [4] was 66.2 ± 2.14 µM, the “Selectivity index (SI) with Pf3D7 strain, A5489” value [5] was 23.31 and the “Selectivity index (SI) with PfW2 strain, A5489” value [5] was 21.22. The “Effect on erythrocytic growth” value [6] was “stopped at the early trophozoite stage”, the IC50 (Falcipain-2) was 4.1 ± 1.1 µM and the IC50 (Falcipain-3) was 5.4 ± 0.7 µM.

`O=C1CC2(CCN(c3cc(N4CCN(S(=O)(=O)c5cccs5)CC4)ncn3)CC2)Oc2ccccc21` [SZ5, 1′-(6-(4-(Thiophen-2-ylsulfonyl)piperazin-1-yl)pyrimidin-4-yl) spiro[chromane-2,4′-piperidin]-4-one] showed an IC50 (Pf3D7 [1]) of 7.45 ± 0.37 µM and an IC50 (PfW2 [2]; Plasmodium falciparum) of 13.3 ± 0.19 µM.

Compound `O=C1CC2(CCN(c3cc(N4CCN(S(=O)(=O)c5ccccc5[N+](=O)[O-])CC4)ncn3)CC2)Oc2ccccc21` [SZ2, 1′-(6-(4-((2-Nitrophenyl)sulfonyl)piperazin-1-yl)pyrimidin-4-yl)spiro [chromane-2,4′-piperidin]-4-one] has an IC50 (Pf3D7 [1]) of 18.1 ± 0.43 µM, an IC50 (PfW2 [2]; Plasmodium falciparum) of over 14 µM and an IC50 (PfW2 [2]) of over 15 µM.
